Measured values published in the supplement of paper PMC10307832.

Tests used:
Experiment in all cases: relative viability (nuclei count vs DMSO), 5 days (fraction); higher = more cells survive
[1] = compound: C#Cc1cccc(Nc2ncnc3cc(OCCOC)c(OCCOC)cc23)c1 [Erlotinib] + COc1cc2c(Oc3ccc(NC(=O)C4(C(=O)Nc5ccc(F)cc5)CC4)cc3F)ccnc2cc1OCCCN1CCOCC1 [Foretinib] (partner 0.25 µM)
Summary of the method: (§1)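 Relative viability was taken as the ratio of nuclei in treated wells to nuclei in vehicle wells. Lung cancer cell lines in 1536-well plates received compounds by pin tool one day after seeding, either one drug alone or a fixed anchor-drug dose plus five library-drug doses (not always all listed) in √10 steps. Nuclei were counted on 4× images after 5 days of treatment, and values are medians of duplicate plates.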

[2] = compound: C#Cc1cccc(Nc2ncnc3cc(OCCOC)c(OCCOC)cc23)c1 [Erlotinib] + Cc1nc(Nc2ncc(C(=O)Nc3c(C)cccc3Cl)s2)cc(N2CCN(CCO)CC2)n1 [Dasatinib] (partner 0.075 µM)
Summary of the method: as §1

[3] = compound: C#Cc1cccc(Nc2ncnc3cc(OCCOC)c(OCCOC)cc23)c1 [Erlotinib] + N=C(N)NC(=N)NCCc1ccccc1 [Phenformin] (partner 250 µM)
Summary of the method: as §1

[4] = compound: O=C(Nc1c[nH]nc1-c1nc2ccc(CN3CCOCC3)cc2[nH]1)NC1CC1 [AT9283] + COc1cc2c(Oc3ccc(NC(=O)C4(C(=O)Nc5ccc(F)cc5)CC4)cc3F)ccnc2cc1OCCCN1CCOCC1 [Foretinib] (partner 0.25 µM)
Summary of the method: as §1

[5] = compound: C#Cc1cccc(Nc2ncnc3cc(OCCOC)c(OCCOC)cc23)c1 [Erlotinib] + COc1cccc2cc(-c3nc([C@H]4CC[C@H](C(=O)O)CC4)n4ncnc(N)c34)[nH]c12 [OSI-027] (partner 0.5 µM)
Summary of the method: as §1

[6] = compound: O=C(Nc1c[nH]nc1-c1nc2ccc(CN3CCOCC3)cc2[nH]1)NC1CC1 [AT9283] + COc1cccc2cc(-c3nc([C@H]4CC[C@H](C(=O)O)CC4)n4ncnc(N)c34)[nH]c12 [OSI-027] (partner 0.5 µM)
Summary of the method: as §1

[7] = compound: O=C(Nc1c[nH]nc1-c1nc2ccc(CN3CCOCC3)cc2[nH]1)NC1CC1 [AT9283] + Cc1cc(Nc2cc(N3CCN(C)CC3)nc(Sc3ccc(NC(=O)C4CC4)cc3)n2)n[nH]1 [Tozasertib] (partner 0.1 µM)
Summary of the method: as §1

[8] = compound: O=C(Nc1c[nH]nc1-c1nc2ccc(CN3CCOCC3)cc2[nH]1)NC1CC1 [AT9283] + CCNC(=O)c1noc(-c2cc(C(C)C)c(O)cc2O)c1-c1ccc(CN2CCOCC2)cc1 [Luminespib] (partner 0.01 µM)
Summary of the method: as §1

[9] = compound: C#Cc1cccc(Nc2ncnc3cc(OCCOC)c(OCCOC)cc23)c1 [Erlotinib] + CCNC(=O)c1noc(-c2cc(C(C)C)c(O)cc2O)c1-c1ccc(CN2CCOCC2)cc1 [Luminespib] (partner 0.01 µM)
Summary of the method: as §1

[10] = compound: O=C(Nc1c[nH]nc1-c1nc2ccc(CN3CCOCC3)cc2[nH]1)NC1CC1 [AT9283] + N=C(N)NC(=N)NCCc1ccccc1 [Phenformin] (partner 250 µM)
Summary of the method: as §1

[11] = compound: O=C(Nc1c[nH]nc1-c1nc2ccc(CN3CCOCC3)cc2[nH]1)NC1CC1 [AT9283] + Cc1nc(Nc2ncc(C(=O)Nc3c(C)cccc3Cl)s2)cc(N2CCN(CCO)CC2)n1 [Dasatinib] (partner 0.075 µM)
Summary of the method: as §1

[12] = compound: C#Cc1cccc(Nc2ncnc3cc(OCCOC)c(OCCOC)cc23)c1 [Erlotinib] + Cc1cc(Nc2cc(N3CCN(C)CC3)nc(Sc3ccc(NC(=O)C4CC4)cc3)n2)n[nH]1 [Tozasertib] (partner 0.1 µM)
Summary of the method: as §1

[13] = compound: N=C(N)NC(=N)NCCc1ccccc1 [Phenformin] (anchor plate); settings: 250 µM
Summary of the method: (§2)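 Cells of lung cancer lines were placed in 1536-well plates and kept overnight at 37 °C. Pinning then delivered five library-drug doses (not always all listed), spaced by √10, onto plates anchored with vehicle, and the cells were left 5 days without changing medium. One step fixed, permeabilised and stained them with Hoechst, and MetaXpress counted nuclei in 4× images. Viability, as a median over plates, is treated-well nuclei divided by vehicle-well nuclei, with acceptance only at control CV below 25% and at least one doubling.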

[14] = compound: C#Cc1cccc(Nc2ncnc3cc(OCCOC)c(OCCOC)cc23)c1 [Erlotinib]
Summary of the method: as §2

[15] = compound: O=C(Nc1c[nH]nc1-c1nc2ccc(CN3CCOCC3)cc2[nH]1)NC1CC1 [AT9283]
Summary of the method: as §2

NCI-H1623
relative viability ([1]; first compound 0.02 µM): 0.923
relative viability ([1]; first compound 0.2 µM): 0.679
relative viability ([1]; first compound 0.6325 µM): 0.366
relative viability ([1]; first compound 2 µM): 0.301
relative viability ([2]; first compound 0.02 µM): 0.562
relative viability ([2]; first compound 0.2 µM): 0.517
relative viability ([2]; first compound 0.6325 µM): 0.315
relative viability ([2]; first compound 2 µM): 0.366
relative viability ([3]; first compound 0.02 µM): 0.559
relative viability ([3]; first compound 0.2 µM): 0.528
relative viability ([3]; first compound 0.6325 µM): 0.227
relative viability ([3]; first compound 2 µM): 0.264
relative viability ([4]; first compound 0.003 µM): 0.91
relative viability ([4]; first compound 0.03 µM): 0.837
relative viability ([4]; first compound 0.09487 µM): 0.612
relative viability ([4]; first compound 0.3 µM): 0.487
relative viability ([5]; first compound 0.02 µM): 0.398
relative viability ([5]; first compound 0.2 µM): 0.366
relative viability ([5]; first compound 0.6325 µM): 0.297
relative viability ([5]; first compound 2 µM): 0.256
relative viability ([6]; first compound 0.003 µM): 0.438
relative viability ([6]; first compound 0.03 µM): 0.448
relative viability ([6]; first compound 0.09487 µM): 0.358
relative viability ([6]; first compound 0.3 µM): 0.381
relative viability ([7]; first compound 0.003 µM): 0.411
relative viability ([7]; first compound 0.03 µM): 0.408
relative viability ([7]; first compound 0.09487 µM): 0.357
relative viability ([7]; first compound 0.3 µM): 0.389
relative viability ([8]; first compound 0.003 µM): 0.466
relative viability ([8]; first compound 0.03 µM): 0.559
relative viability ([8]; first compound 0.09487 µM): 0.437
relative viability ([8]; first compound 0.3 µM): 0.37
relative viability ([9]; first compound 0.02 µM): 0.414
relative viability ([9]; first compound 0.2 µM): 0.425
relative viability ([9]; first compound 0.6325 µM): 0.352
relative viability ([9]; first compound 2 µM): 0.336
relative viability ([10]; first compound 0.003 µM): 0.597
relative viability ([10]; first compound 0.03 µM): 0.578
relative viability ([10]; first compound 0.09487 µM): 0.55
relative viability ([10]; first compound 0.3 µM): 0.336
relative viability ([11]; first compound 0.003 µM): 0.567
relative viability ([11]; first compound 0.03 µM): 0.51
relative viability ([11]; first compound 0.09487 µM): 0.615
relative viability ([11]; first compound 0.3 µM): 0.324
relative viability ([12]; first compound 0.02 µM): 0.437
relative viability ([12]; first compound 0.2 µM): 0.315
relative viability ([12]; first compound 0.6325 µM): 0.29
relative viability ([12]; first compound 2 µM): 0.209
relative viability [13]: 0.577
relative viability ([14]; 0.02 µM): 0.945
relative viability ([14]; 0.2 µM): 0.723
relative viability ([14]; 0.6325 µM): 0.592
relative viability ([14]; 2 µM): 0.333
relative viability ([15]; 0.003 µM): 0.94
relative viability ([15]; 0.03 µM): 0.928
relative viability ([15]; 0.09487 µM): 0.545
relative viability ([15]; 0.3 µM): 0.501
